We go through 15 compounds from ChEMBL document CHEMBL1777683, “Identification of plasmepsin inhibitors as selective anti-malarial agents using ligand based drug design” (Bioorg Med Chem Lett, 2011).

Assay [1] has as its system Plasmodium falciparum. As to the kind of experiment: Antimalarial activity against Plasmodium falciparum 3D7 infected in RBC assessed as parasite-specific lactate dehydrogenase release. The format is functional, organism-based.
Assay [2] has as its target Cathepsin D (Homo sapiens) (UniProt P07339). The assay can be described thus: Inhibition of human liver Cathepsin D using KPIEF(nF)RL chromogenic substrate at 5 uM by absorbance assay.
For assay [3], the target named is Plasmepsin II (Plasmodium falciparum) (UniProt P46925). The assay can be described thus: Inhibition of Plasmodium falciparum plasmepsin 2 using DABCYL-Glu-Arg-Nle-Phe-Leu- Ser-Phe-Pro-EDANS fluorogenic substrate at 5 uM by fluorogenic assay.
In assay [4] the test system is Plasmodium falciparum. As to the kind of experiment: Inhibition of Plasmodium falciparum plasmepsin 4 using DABCYL-Glu-Arg-Nle-Phe-Leu- Ser-Phe-Pro-EDANS fluorogenic substrate at 5 uM by fluorogenic assay.
The target of another assay is Plasmepsin II (Plasmodium falciparum, UniProt P46925). As to the kind of experiment: Inhibition of Plasmodium falciparum plasmepsin 2 using DABCYL-Glu-Arg-Nle-Phe-Leu- Ser-Phe-Pro-EDANS fluorogenic substrate by fluorogenic assay.
Assay [5] is described as follows: Inhibition of Plasmodium falciparum plasmepsin 4 using DABCYL-Glu-Arg-Nle-Phe-Leu- Ser-Phe-Pro-EDANS fluorogenic substrate by fluorogenic assay.
In assay [6] the test system is Plasmodium falciparum. As to the kind of experiment: Antimalarial activity against Plasmodium falciparum 3D7 infected in RBC assessed as parasite-specific lactate dehydrogenase release at 16 uM. It is filed as functional.

SMILES strings stand for the structures.

Sequence of Cathepsin D (Homo sapiens) (P07339 65-162 limits assumed): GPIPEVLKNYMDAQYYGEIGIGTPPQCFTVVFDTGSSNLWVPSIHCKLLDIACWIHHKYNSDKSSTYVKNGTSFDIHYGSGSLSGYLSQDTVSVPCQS
Sequence of Cathepsin D (Homo sapiens) (P07339 169-412 limits assumed): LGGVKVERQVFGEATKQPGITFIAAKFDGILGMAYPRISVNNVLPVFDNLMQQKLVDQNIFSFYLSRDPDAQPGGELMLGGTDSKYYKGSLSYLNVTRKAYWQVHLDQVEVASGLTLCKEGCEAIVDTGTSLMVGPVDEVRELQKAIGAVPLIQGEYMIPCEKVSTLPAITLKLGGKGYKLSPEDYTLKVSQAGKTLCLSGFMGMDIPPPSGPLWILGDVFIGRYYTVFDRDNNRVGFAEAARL
Sequence of Plasmepsin II (P46925 whole entry): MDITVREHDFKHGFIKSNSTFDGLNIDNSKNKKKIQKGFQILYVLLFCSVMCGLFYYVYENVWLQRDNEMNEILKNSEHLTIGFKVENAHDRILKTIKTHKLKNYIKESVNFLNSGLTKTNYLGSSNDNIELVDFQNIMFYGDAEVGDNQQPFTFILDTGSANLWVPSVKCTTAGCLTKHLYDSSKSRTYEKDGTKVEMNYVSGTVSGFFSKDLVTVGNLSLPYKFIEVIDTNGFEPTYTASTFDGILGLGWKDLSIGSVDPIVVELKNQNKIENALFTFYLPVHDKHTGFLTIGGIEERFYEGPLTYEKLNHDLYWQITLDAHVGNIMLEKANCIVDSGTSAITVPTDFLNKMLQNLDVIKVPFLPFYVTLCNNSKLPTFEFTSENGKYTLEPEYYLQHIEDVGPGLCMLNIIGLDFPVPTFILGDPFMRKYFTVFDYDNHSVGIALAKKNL
Sequence of Plasmepsin II (Plasmodium falciparum) (P46925 125-453 limits assumed): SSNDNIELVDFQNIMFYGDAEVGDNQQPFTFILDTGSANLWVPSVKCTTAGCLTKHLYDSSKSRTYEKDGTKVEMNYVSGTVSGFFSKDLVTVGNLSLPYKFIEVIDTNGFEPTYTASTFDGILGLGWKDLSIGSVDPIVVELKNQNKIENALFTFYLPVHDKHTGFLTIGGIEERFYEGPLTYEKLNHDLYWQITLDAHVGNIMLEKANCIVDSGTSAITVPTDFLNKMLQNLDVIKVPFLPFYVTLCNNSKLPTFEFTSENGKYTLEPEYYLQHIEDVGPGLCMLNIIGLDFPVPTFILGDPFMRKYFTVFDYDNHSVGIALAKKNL

The IC50 is the midpoint of a concentration-inhibition curve. The term inhibition denotes how much of the control response was suppressed. For `CCOc1ccc(N(C(=O)c2snc(C(=O)NC3CCCCC3)c2N)[C@H](C(=O)NCCc2ccccc2)c2ccc(OC)cc2)cc1`, in the assay on Plasmodium falciparum [1], the IC50 came out at 0.35 µM. The inhibition in assay [2] worked out at 20%; in assay [3] it was 30%; with Plasmodium falciparum [4], 20%.
Regarding `CCCCOc1ccc(-c2cc(C(=O)N/N=C(\C=C\c3ccc4c(c3)OCO4)c3ccc(OC)cc3)c3ccccc3n2)cc1`, the concentration for half-maximal inhibition (IC50) in the assay on Plasmodium falciparum [1] was found to be 24 µM.
In general, Ki refers to the equilibrium dissociation constant of an inhibitor or competing ligand from its target. Read a high Ki as lower affinity. On to `COC(=O)CCC(=O)N(CCN(Cc1ccccc1)C(=O)CCC(=O)OC)Cc1ccccc1`, for which the 50% inhibitory concentration (IC50) with Plasmodium falciparum [1] is 5.24 µM; at Plasmepsin II, 10 µM; in assay [5], 9 µM. At Plasmepsin II, the Ki turned out to be 7 µM. The compound further displayed an inhibition in assay [2] of 35%.
For `CCOc1cccc(-c2cc(C(=O)N/N=C/c3ccc(OC)c(CN4CCSCC4)c3)c3ccccc3n2)c1`, the IC50 in the assay with Plasmodium falciparum [1] came to 40 µM.
`CCN(CC)c1ccc(/C=N/NC(=O)CSc2nc3ccccc3n2Cc2ccc(Cl)cc2)cc1`: the concentration for half-maximal inhibition (IC50) with Plasmodium falciparum [1] was 2.18 µM; on Plasmepsin II it was 2.4 µM; in assay [5], 0.62 µM. Also, the inhibition constant (Ki) on Plasmepsin II was found to be 1.2 µM; in assay [5], 0.47 µM. In addition, the inhibition in assay [2] stood at 10%.
`O=C(NCCNC(=O)/C(=C\c1ccco1)NC(=O)c1ccccc1)/C(=C/c1ccco1)NC(=O)c1ccccc1`: in the assay with Plasmodium falciparum [1], the IC50 came to 12 µM.
Consider `Cc1ccc(NC(=S)N(Cc2ccc3c(c2)OCO3)Cc2cc3cccc(C)c3[nH]c2=O)cc1`, for which the IC50 with Plasmodium falciparum [1] was determined as 9.6 µM; on Plasmepsin II, 7 µM; in assay [5] it was 6.3 µM. The results for the Ki (at Plasmepsin II; in assay [5]) were 4.6 µM and 5.5 µM, respectively. This compound also had an inhibition in assay [2] of 35%.
For `CC(C)CCNC(=O)[C@H](c1c[nH]c2ccccc12)N(C(=O)c1snc(C(N)=O)c1N)c1ccc2c(c1)OCO2`, the half-maximal inhibitory concentration (IC50) in the assay with Plasmodium falciparum [1] was determined as 2.21 µM; on Plasmepsin II it was 21.3 µM; in assay [5] it was 26 µM. Further, the results for the Ki (on Plasmepsin II; in assay [5]) were 10.6 µM and 20 µM, respectively. Besides, the inhibition in assay [2] turned out to be 12%.
Turning to `CCCCc1ccc(-c2cc(C(=O)Nc3scc(-c4cccnc4)c3C(=O)OC)c3cc(Br)ccc3n2)cc1`, the IC50 in the assay on Plasmodium falciparum [1] amounted to 1.24 µM.
For `CCN(CC)C(=O)c1sc(NC(=O)c2cc(-c3cccc(C)c3)nc3ccccc23)c(C(=O)OC)c1C`, the half-inhibitory concentration (IC50) turned out to be 4.5 µM with Plasmodium falciparum [1], 2.5 µM against Plasmepsin II and 2.6 µM in assay [5]. Besides, the Ki on Plasmepsin II was 2 µM; in assay [5], 2.5 µM. Further, the inhibition in assay [2] amounted to 20%.
For the compound `CCCCOc1cccc(-c2cc(C(=O)N/N=C(\C)c3cccc(NC(=O)C(C)(C)C)c3)c3ccccc3n2)c1`, the concentration for half-maximal inhibition (IC50) with Plasmodium falciparum [1] worked out at 3.7 µM; on Plasmepsin II it was 11.5 µM; in assay [5] it was 15 µM. For the same compound, the figures for the Ki (on Plasmepsin II; in assay [5]) were 8 µM and 13 µM, respectively. In assay [2], the inhibition amounted to 12%.
As for `COc1ccc(-c2cc(-c3ccc(Cl)cc3)c(C#N)c(S[C@H](C)C(=O)Nc3ccc(C(C)=O)cc3)n2)cc1`, the inhibition at 16 µM in the assay with Plasmodium falciparum [6] turned out to be 32%.
As to `CCOC(=O)c1ccc(/N=C2\S/C(=C\c3ccc(C(C)(C)C)cc3)C(=O)N2c2ccc(C(=O)OCC)cc2)cc1`, the IC50 with Plasmodium falciparum [1] was 5 µM; at Plasmepsin II it was 6.1 µM; in assay [5], 3.7 µM. For the same compound, the Ki stood at 4 µM at Plasmepsin II and 3.23 µM in assay [5]. In assay [2], this compound came in with an inhibition of 15%.
Consider `COc1ccc(Cl)cc1NC(=O)c1sc2nc(-c3ccccc3)cc(-c3ccc(OCc4ccccc4)c(OC)c3)c2c1N`, for which the IC50 in the assay on Plasmodium falciparum [1] came to 2.3 µM; against Plasmepsin II, 2.3 µM; in assay [5], 6.2 µM. Moreover, the values for the inhibition constant (Ki) (on Plasmepsin II; in assay [5]) were 1.6 µM and 5.4 µM, respectively. This compound also gave an inhibition in assay [2] of 12%.
`COc1ccc([C@@H](C(=O)NC2CCCC2)N(C(=O)c2snc(C(N)=O)c2N)c2ccc(OC)cc2)cc1`: the half-inhibitory concentration (IC50) in the assay on Plasmodium falciparum [1] came to 25 µM.
